From BindingDB's records for doi:10.1021/jm9903139 (Departement D'Ingenierie Et D'Etudes Des Proteines, 2000)
Starred links: 1 amine or outer side, 2 acyl side, 3 side chain; linkers in the order of their positions; H or OH if unused. Non-standard residues stand in square brackets, D forms with d. Residues, ends and D or L forms follow the SMILES beside them. *: point of attachment. NHCH2CHPh2 = c1ccc(C(CN*)c2ccccc2)cc1; pNA = O=[N+]([O-])c1ccc(N*)cc1; NHPhenethyl = c1ccc(CCN*)cc1; Suc = O=C(CCC(=O)[*:2])[*:1]; Orn = NCCC[C@H](N)C(=O)O

Each compound was assayed against Peptidyl-prolyl cis-trans isomerase A (cyclophilin A, hCyp-18) (Homo sapiens) (UniProt P62937) (assay: 50% inhibitory concentration of competitive binding against hCyp-18 PPIase activity using uncoupled assay).
Chain of Peptidyl-prolyl cis-trans isomerase A (cyclophilin A, hCyp-18) (Homo sapiens) (P62937 whole entry, looked up): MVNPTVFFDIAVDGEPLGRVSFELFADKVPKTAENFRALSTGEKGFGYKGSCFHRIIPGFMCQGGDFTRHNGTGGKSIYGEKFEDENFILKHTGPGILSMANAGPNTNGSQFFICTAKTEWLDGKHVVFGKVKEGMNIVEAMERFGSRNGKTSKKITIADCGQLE

| SMILES | IC50 |
| --- | --- |
| CC[C@@H]1/C=C(\C)C[C@H](C)C[C@H](OC)[C@H]2O[C@@](O)(C(=O)C(=O)N3CCCC[C@H]3C(=O)O[C@H](/C(C)=C/[C@@H]3CC[C@@H](O)[C@H](OC)C3)[C@H](C)[C@@H](O)CC1=O)[C@H](C)C[C@@H]2OC | 8 µM |
| CC[C@H](C)[C@H](NC(=O)[C@@H]1CCCN1C(=O)CNC(=O)[C@H](C)NC(=O)[C@H](Cc1cnc[nH]1)NC(=O)[C@@H](NC(C)=O)C(C)C)C(=O)NCCc1ccccc1 (Ac-VHAGPI-NHPhenethyl) | 325 µM |

The remaining lines, values ahead:

| IC50 | SMILES |
| --- | --- |
| 365 µM | CC[C@H](C)[C@H](NC(=O)[C@@H]1CCCN1C(=O)CNC(=O)[C@H](C)NC(=O)[C@H](Cc1cnc[nH]1)NC(=O)[C@@H](NC(C)=O)C(C)C)C(=O)NCC(c1ccccc1)c1ccccc1 (Ac-VHAGPI-NHCH2CHPh2) |
| > 10000 µM | CC[C@H](C)[C@H](NC(=O)[C@@H]1CCCN1C(=O)CNC(=O)[C@H](C)NC(=O)[C@H](CCCN)NC(=O)[C@@H](NC(C)=O)C(C)C)C(=O)N[C@@H](C)C(N)=O [1-(2-{2-[2-(2-Acetylamino-3-methyl-butyrylamino)-5-amino-pentanoylamino]-propionylamino}-acetyl)-pyrrolidine-2-carboxylic acid [1-(1-carbamoyl-ethylcarbamoyl)-2-methyl-butyl]-amide] (Ac-V[Orn]AGPIA-NH2) |
| 850 µM | C[C@H](NC(=O)CCC(=O)O)C(=O)N[C@@H](C)C(=O)N1CCC[C@H]1C(=O)N[C@@H](Cc1ccccc1)C(=O)Nc1ccc([N+](=O)[O-])cc1 [N-[1-(1-Methyl-2-{2-[1-(4-nitro-phenylcarbamoyl)-2-phenyl-ethylcarbamoyl]-pyrrolidin-1-yl}-2-oxo-ethylcarbamoyl)-ethyl]-succinamic acid] (Suc-AAPF-pNA) |
